Source: paper PMC8070004, “Isorhamnetin Ameliorates Dry Eye Disease via CFTR Activation in Mice” (International Journal of Molecular Sciences, 2021)

Key:
[1] = tested on: conjunctival epithelial (ConjE) cells; assay: MTS cell viability assay in ConjE cells; assay type: cell-based, human; settings: 48 h; isorhamnetin 30 μM, Triton X-100 0.01%
Description: (§1) Immortalized human CorE [47] and immortalized human ConjE (Innoprot, Bizkaia, Spain) cells were plated on 96-well microplates. After 24 h incubation, cells were treated with 30 μM isorhamnetin or 0.01% Triton X-100 and then they were incubated for two days. An equal amount of DMSO was added to the control. The culture medium and the compounds were changed every 12 h. To assess cell proliferation, after 48 h of incubation with the compound, the cells were reincubated with MTS for 1 h. The soluble formazan produced by cellular reduction of MTS was quantified by measuring the absorbance at 490 nm with Infinite M200 (Tecan, Grödig, Austria) microplate reader. MTS assay was done using CellTiter 96 AQueous One Solution Cell Proliferation Assay kit (Promega, Madison, WI, USA).

[2] = tested on: pro-inflammatory cytokine mRNA expression; assay: Real-time PCR of pro-inflammatory cytokines in cornea and conjunctiva of dry eye mice; assay type: in vivo, mouse
Description: Eight-week-old C57BL/6 mice were used for this experiment. Experimental dry eye was induced by subcutaneous injection of 0.5 mg/100 μL scopolamine hydrobromide (Sigma-Aldrich, St. Louis, MO, USA) three times a day with a standard desiccating environment created by placing the mice in a chamber with a continuous air flow (15 L/min) in a room at 25 °C with an ambient humidity of 12%. Fourteen days after the initiation of experimental dry eye, the mice were treated or not with 5-μL drop of ophthalmic formulation (30 μM isorhamnetin in PBS with 0.1% DMSO) or vehicle three times a day. Eight days after the initiation of the formulation treatment, scopolamine injection was stopped. Ten days after the initiation of the formulation treatment, measurement of tear volume, corneal disruption, and relative mRNA level was performed.
The mRNA expressions of IL-1β, IL-6, IL-8, TNF-α, IFN-γ, and MMP-9 in cornea and conjunctiva of the dry eye model-treated mice were measured by qPCR. RNA was isolated using TRIzol reagent (Invitrogen, Carlsbad, CA, USA), and 1 μg of RNA was used to synthesize complementary DNA (cDNA) using RNA to cDNA EcoDryTM premix (TaKaRa, Shiga, Japan) according to the manufacturer’s protocol. The relative mRNA levels were measured in ViiA7 (Applied Biosystems, Foster City, CA, USA) using SYBR Green PCR Master Mix (Applied Biosystems). The primer sequences used were as follows: GAPDH, sense (5-[…]-3) and antisense (5-[…]-3), size of PCR product 155 base pairs; IL-1β, sense (5-[…]-3) and antisense (5-[…]-3), size of PCR product 199 base pairs; IL-6, sense (5-[…]-3) and antisense (5-[…]-3), size of PCR product 131 base pairs; IL-8, sense (5-[…]-3) and antisense (5-[…]-3), size of PCR product 190 base pairs; TNF-α, sense (5-[…]-3) and antisense (5-[…]-3), size of PCR product 166 base pairs; IFN-γ, sense (5-[…]-3) and antisense (5- […]-3), size of PCR product 156 base pairs; and MMP-9, sense (5-[…]-3) and antisense (5-[…]-3), size of PCR product 190 base pairs. The mRNA levels of the cytokines and MMP-9 were normalized to GAPDH levels and the fold-change in gene expression was determined by using 2^-ΔΔCT method.

[3] = tested on: scopolamine-induced dry eye mice; assay: Scopolamine-induced dry eye mouse model (corneal fluorescein staining, tear volume); assay type: in vivo; settings: 30 µM, three times a day for 10 days
Description: Tear volume was measured using phenol red threads (Zone-Quick, Oasis Medical, Glendora, CA, USA) by placing them in the lateral canthi of normal CD-1 or dry eye model-treated BL6 mice for 10 s using forceps. Tear volume was measured using a Vernier caliper as the length of thread wetting under a microscope. For normal CD-1 mice, serial measurements were done to evaluate compound pharmacodynamics compared to the vehicle after topical application of a single, 2.5-μL drop of compound formulations containing 20 μM forskolin, 30 μM isorhamnetin, or 20 μM CFTRinh-172 in PBS with 0.1% DMSO.
To assess corneal epithelial disruption, 5 μL of fluorescein dye (1%) were applied to the ocular surface of mice. Photographs of the eye were taken with a digital camera. Each cornea was scored from 0 to 5 according to the Oxford scheme.
Eight-week-old C57BL/6 mice were used for this experiment. Experimental dry eye was induced by subcutaneous injection of 0.5 mg/100 μL scopolamine hydrobromide (Sigma-Aldrich, St. Louis, MO, USA) three times a day with a standard desiccating environment created by placing the mice in a chamber with a continuous air flow (15 L/min) in a room at 25 °C with an ambient humidity of 12%. […]

[4] = tested on: corneal epithelial (CorE) cells; assay: MTS cell viability assay in CorE cells; assay type: cell-based, human; settings: 48 h; isorhamnetin 30 μM, Triton X-100 0.01%
Description: as §1

[5] = biological target: WT-CFTR (Homo sapiens, UniProt P13569); assay: Whole-cell patch clamp in CHO-K1 cells expressing WT-CFTR; assay type: cell-based; set-up: expressed in transfected cells; host or cells: CHO-K1; settings: 30 μM isorhamnetin; linear current/voltage relationship
Chain of WT-CFTR (P13569 whole entry): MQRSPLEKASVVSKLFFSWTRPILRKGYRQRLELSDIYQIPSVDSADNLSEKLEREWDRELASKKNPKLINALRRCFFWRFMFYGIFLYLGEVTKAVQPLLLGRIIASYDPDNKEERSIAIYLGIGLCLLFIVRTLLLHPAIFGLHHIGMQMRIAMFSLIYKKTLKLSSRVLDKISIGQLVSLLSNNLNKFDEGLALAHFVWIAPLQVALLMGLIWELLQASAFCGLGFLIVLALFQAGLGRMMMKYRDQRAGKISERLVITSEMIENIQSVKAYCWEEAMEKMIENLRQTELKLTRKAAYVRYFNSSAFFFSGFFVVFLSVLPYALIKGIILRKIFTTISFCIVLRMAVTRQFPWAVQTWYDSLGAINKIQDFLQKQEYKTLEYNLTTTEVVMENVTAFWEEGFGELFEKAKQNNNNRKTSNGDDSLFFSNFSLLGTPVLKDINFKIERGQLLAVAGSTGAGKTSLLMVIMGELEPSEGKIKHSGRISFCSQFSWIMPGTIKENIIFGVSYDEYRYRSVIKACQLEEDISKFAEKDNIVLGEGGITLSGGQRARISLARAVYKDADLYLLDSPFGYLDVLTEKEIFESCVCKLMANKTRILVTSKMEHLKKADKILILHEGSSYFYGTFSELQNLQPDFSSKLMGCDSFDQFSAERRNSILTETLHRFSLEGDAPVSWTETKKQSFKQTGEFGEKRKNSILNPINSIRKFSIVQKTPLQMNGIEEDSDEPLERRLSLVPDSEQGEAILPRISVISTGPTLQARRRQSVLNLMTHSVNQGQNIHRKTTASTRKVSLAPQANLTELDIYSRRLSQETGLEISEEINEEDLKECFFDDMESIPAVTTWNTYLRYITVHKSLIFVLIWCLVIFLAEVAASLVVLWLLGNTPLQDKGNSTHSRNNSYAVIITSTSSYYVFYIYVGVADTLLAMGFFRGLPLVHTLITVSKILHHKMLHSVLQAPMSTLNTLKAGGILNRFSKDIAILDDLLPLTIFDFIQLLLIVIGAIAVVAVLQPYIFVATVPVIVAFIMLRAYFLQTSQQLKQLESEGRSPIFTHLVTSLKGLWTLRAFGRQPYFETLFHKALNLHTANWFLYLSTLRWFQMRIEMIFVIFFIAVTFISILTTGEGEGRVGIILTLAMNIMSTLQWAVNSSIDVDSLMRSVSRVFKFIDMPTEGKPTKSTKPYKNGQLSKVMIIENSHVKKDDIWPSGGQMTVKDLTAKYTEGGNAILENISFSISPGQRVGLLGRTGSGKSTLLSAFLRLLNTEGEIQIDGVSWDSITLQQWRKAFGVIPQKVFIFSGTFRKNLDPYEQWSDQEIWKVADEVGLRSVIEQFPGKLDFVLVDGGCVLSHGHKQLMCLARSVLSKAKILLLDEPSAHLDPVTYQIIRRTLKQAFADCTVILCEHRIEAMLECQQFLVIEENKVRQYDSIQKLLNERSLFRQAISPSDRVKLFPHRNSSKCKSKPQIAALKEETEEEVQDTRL
Description: Whole-cell, patch clamp recordings were performed on CFTR-expressing CHO cells. The bath solution contained (in mM) 140 NMDG-Cl, 1 CaCl2, 1 MgCl2, 10 glucose, and 10 HEPES (pH 7.4). The pipette solution contained (in mM) 130 CsCl, 0.5 EGTA, 1 MgCl2, 1 Tris-ATP, and 10 HEPES (pH 7.2). […] Seal resistances were between 3 and 10 GΩ. After establishing the whole-cell configuration, CFTR was activated by forskolin and/or isorhamnetin. […] Recordings were made at room temperature using an Axopatch-200B (Axon Instruments, San Jose, CA, USA). Currents were digitized with a Digidata 1440A converter (Axon Instruments), filtered at 5 kHz, and sampled at 1 kHz.

[6] = biological target: T1, ENaC (Homo sapiens, UniProt P37088+P51168+P51170); assay: ENaC short-circuit current in T84 cells; assay type: cell-based; settings: 30 μM applied 10 min prior to 100 µM amiloride
T1 construct: endogenous in cells; host or cells: T84 cells (provided by Dr. Min Goo Lee)
T1 sequence (P51168 whole entry): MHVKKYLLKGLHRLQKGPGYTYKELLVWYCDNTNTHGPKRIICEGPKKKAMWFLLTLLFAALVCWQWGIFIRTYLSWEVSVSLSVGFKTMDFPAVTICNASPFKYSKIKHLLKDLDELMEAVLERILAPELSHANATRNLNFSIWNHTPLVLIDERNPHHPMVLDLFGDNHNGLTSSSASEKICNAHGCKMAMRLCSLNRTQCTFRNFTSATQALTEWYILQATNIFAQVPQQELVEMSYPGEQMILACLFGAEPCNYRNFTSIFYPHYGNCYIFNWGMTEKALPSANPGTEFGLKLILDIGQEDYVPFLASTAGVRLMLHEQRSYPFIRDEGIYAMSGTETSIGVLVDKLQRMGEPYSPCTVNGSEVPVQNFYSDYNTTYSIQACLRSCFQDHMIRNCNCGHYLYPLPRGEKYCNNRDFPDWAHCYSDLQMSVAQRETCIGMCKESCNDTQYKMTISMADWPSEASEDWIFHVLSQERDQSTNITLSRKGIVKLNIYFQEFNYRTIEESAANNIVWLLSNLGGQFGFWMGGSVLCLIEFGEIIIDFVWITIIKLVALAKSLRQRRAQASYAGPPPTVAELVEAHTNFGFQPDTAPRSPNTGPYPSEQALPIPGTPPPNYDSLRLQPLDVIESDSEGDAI
T1 sequence (P37088 whole entry): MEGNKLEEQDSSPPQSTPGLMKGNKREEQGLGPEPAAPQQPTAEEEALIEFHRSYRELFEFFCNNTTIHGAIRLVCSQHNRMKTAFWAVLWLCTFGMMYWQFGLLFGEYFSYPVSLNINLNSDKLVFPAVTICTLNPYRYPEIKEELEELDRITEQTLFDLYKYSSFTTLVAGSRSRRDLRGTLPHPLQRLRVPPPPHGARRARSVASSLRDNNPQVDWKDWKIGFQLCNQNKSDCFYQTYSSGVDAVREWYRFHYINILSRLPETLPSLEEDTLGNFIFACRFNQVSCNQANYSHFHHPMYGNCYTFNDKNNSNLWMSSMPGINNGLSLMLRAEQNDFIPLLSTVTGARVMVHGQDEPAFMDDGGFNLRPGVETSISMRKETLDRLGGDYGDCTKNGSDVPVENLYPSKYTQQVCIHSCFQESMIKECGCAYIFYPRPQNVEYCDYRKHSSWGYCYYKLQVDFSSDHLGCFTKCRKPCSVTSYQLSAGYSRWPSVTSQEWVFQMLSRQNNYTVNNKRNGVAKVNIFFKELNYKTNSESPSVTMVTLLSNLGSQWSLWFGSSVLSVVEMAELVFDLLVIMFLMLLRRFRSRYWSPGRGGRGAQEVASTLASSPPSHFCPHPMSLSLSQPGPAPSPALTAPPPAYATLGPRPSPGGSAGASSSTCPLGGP
T1 sequence (P51170 whole entry): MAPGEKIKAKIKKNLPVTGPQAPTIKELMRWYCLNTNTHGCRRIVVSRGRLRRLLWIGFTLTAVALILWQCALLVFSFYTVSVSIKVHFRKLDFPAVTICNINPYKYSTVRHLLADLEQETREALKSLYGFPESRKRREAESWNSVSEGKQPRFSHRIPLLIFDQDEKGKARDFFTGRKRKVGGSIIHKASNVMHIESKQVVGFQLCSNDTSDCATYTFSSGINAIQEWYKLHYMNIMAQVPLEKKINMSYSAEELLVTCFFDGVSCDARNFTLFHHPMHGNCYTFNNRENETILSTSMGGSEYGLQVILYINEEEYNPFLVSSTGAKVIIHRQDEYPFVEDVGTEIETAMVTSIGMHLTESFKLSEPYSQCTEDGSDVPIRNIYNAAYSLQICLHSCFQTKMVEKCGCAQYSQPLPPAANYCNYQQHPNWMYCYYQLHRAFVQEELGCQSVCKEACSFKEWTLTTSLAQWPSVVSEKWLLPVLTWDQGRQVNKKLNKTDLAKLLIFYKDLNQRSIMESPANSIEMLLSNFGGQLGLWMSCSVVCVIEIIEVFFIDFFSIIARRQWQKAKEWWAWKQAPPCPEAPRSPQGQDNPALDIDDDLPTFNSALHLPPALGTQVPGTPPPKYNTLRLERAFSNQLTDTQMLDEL
Description: Snapwell inserts containing CFTR-expressing FRT and T84 cells were mounted in Ussing chambers (Physiologic Instruments, San Diego, CA, USA). Forskolin, isorhamnetin, and CFTRinh-172 were added to the apical and basolateral bath solution. For FRT cells, the apical bath was filled with a half-Cl^− solution and the basolateral bath was filled with HCO^3--buffered solution to generate transepithelial Cl^− gradient (apical, 64 mM; basolateral, 129 mM), and the basolateral membrane was permeabilized with 250 µg/mL amphotericin B. For T84 cells, symmetrical HCO^3--buffered solutions were used, and ENaC was inhibited with amiloride (100 µM). All cells were bathed for a 20-min stabilization period and aerated with 95% O2/5% CO2 at 37 °C. Apical membrane current and short-circuit current were measured with an EVC4000 Multi-Channel V/I Clamp (World Precision Instruments, Sarasota, FL, USA) and recorded using PowerLab 4/35 (AD Instruments, Castle Hill, Australia). Data were collected and analyzed with ADInstruments acquisition software Labchart Pro 7 software. The sampling rate was 4 Hz.

[7] = cornea of the dry eye mouse model

COc1cc(-c2oc3cc(O)cc(O)c3c(=O)c2O)ccc1O [isorhamnetin]
cell viability (MTS), ConjE cells [1]: did not affect the cell viability | IL-1β expression [2, 7]: significantly reduced | IL-8 expression [2, 7]: significantly reduced | TNF-α expression [2, 7]: significantly reduced | mRNA expression of cytokines in cornea and conjunctiva ([2]; dry eye mice treated with isorhamnetin for 10 days): strongly reduced | corneal erosion (fluorescein staining) [3]: significantly reduced | tear volume in dry eye mice [3]: increased | cell viability (MTS), CorE cells [4]: did not affect the cell viability | CFTR Cl- currents (whole-cell) [5]: fully activated | ENaC function (short-circuit current) [6]: did not alter
